Read-outs that look alike come from different tables or passages of the source.
Assays:
[1] = test system: splenic lymphocytes isolated from C57BL/6 mice; assay: Mixed lymphocyte reaction (MLR), [3H] thymidine incorporation; format: cell-based; conditions: IC50 quoted as a ratio of the rapamycin IC50; 72 h, 37° C.
Experimental: Originally developed to assess tissue compatibility prior to allografts, MLR offers an established model for immune reaction in vitro (SOULILLOU, J. P., et al. (1975); T. Meo. “Immunological Methods”, L. Lefkovits and B. Pernis, Eds., Academic Press, N.Y. pp. 227-239 (1979). MLR was performed by mixing splenic lymphocytes isolated from C57BL/6 mice (5×10^5 cells) with inhibited splenic lymphocytes from CBA mice (2.5×10^5 cells). The inhibited CBA lymphocytes induced a proliferative response in C57BU6 lymphocytes and this was determined by [^3H] thymidine incorporation into DNA as a measure of proliferation of splenic lymphocytes isolated from C57BU6 mice. The anti-proliferative effect was assayed for in the presence of log scale dilutions of reference compounds, test compounds and media controls over a 72 h period at 37° C. The concentration of each test compound and reference compound, which inhibited lymphocyte proliferation by 50% (IC50), compared to control proliferation, was calculated for each cell line and quoted as a ratio of the concentration of rapamycin required to inhibit lymphocyte proliferation by 50% (rIC50), see Table XIV.

[2] = test system: HT29 (colon); assay: MTT growth inhibition assay, HT29 (colon) tumour cell line; format: cell-based, human; conditions: for IC50: concentration giving 50% of maximum inhibition, read-out: IC50 (row head: HT29 rIC50)
Experimental: (§1) Growth inhibition of adherent human tumour cell lines of solid malignancies HT29 (colon) and MCF-7 (breast) was tested in vitro using an MTT (3-(4,5-dimethylthiazol-2-yl)-2,5-diphenyltetrazolium bromide) assay using micro-titre plates (Sieuwerts, A. M., et al., 1995). All cell lines were obtained from either the ATCC (American Type Culture Collection) or ECACC (European Collection of Cell Cultures). All cell lines were grown from frozen stocks and passaged at least once prior to use in RPMI 1640. Cells were harvested from sub-confluent cultures using minimal trypsinization. Cells were diluted to the appropriate density for each cell line (dependent on cell doubling time) in RPMI 1640, and seeded in 60 wells of a 96 well plate in a volume of 100 μl per well (i.e. outside wells of the plate were not used). Plates were incubated at 37° C. overnight. Following this incubation, log scale dilutions of reference and test substances were added in 100 μl per well, 6 replicates were used to test all test compounds, reference compounds and medium controls. Plates were incubated for a further 72 h prior to analysis. MTT (5 mg/ml) was added to each well and plates were re-incubated for 3-4 h. Unreacted MTT was removed from the wells and formazan crystals formed from the MTT were dissolved in DMSO and characteristic absorbance read at 570 nm.

[3] = test system: MCF-7 (breast); assay: MTT growth inhibition assay, MCF-7 (breast) tumour cell line; format: cell-based, human; conditions: MCF-7 cell line, 72 h; for IC50: concentration giving 50% of maximum inhibition, read-out: IC50 (row head: MCF-7 rIC50)
Experimental: as §1

[4] = test system: Candida glabrata DSM 11226; assay: Anti-fungal assay, NCCLS M27-A microtitre broth dilution; format: cell-based; conditions: MIC as a ratio of the rapamycin MIC; 37° C., 24 h
Experimental: (§2) The comparative anti-fungal activities of reference and test compounds were determined against pathogenic fungi Candida albicans DSM 5816, Candida albicans DSM 1386 and Candida glabrata DSM 11226. This was achieved using a microtitre plate adaption of the NCCLS Reference Method for Broth Dilution Antifungal Susceptibility Testing for Yeasts: Approved Standard (M27-A, vol. 17 No. 9. (1997)). Yeast strains were inoculated (10^4 cfu/ml) to RPMI 1640 media containing […] MOPS, pH 7. Growth was determined in the presence of log scale dilutions of reference compounds, test compounds and media controls after incubation with shaking at 37° C., 24 h. Minimum inhibitory concentration (MIC) and minimum fungicidal activity (MFC) were determined for test compounds and expressed as a ratio of the rapamycin minimum inhibitory concentration (rMIC respectively), see Table XV.

[5] = test system: Candida albicans DSM 1386; assay: as above; format: cell-based; conditions: MIC as a ratio of the rapamycin MIC; 37° C., 24 h
Experimental: as §2

[6] = test system: Candida albicans DSM 5816; assay: as above; format: cell-based; conditions: MIC as a ratio of the rapamycin MIC; 37° C., 24 h
Experimental: as §2

[7] = compared to rapamycin; Wong et al., 1998; cited from earlier work
[8] = test system: murine splenic B cells; conditions: compared to rapamycin; Box et al., 1995; cited from earlier work
[9] = molecular target: FKBP12 (Homo sapiens, UniProt P62942); conditions: compared to rapamycin; Box et al., 1995; cited from earlier work
Sequence of FKBP12 (P62942 whole entry): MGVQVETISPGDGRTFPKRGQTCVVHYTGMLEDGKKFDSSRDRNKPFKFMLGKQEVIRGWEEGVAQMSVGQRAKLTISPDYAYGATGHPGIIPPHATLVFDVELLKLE

[10] = compared to rapamycin; Box et al., 1995; cited from earlier work
[11] = test system: murine splenic T cells; conditions: compared to rapamycin; Box et al., 1995; cited from earlier work
[12] = compared to rapamycin; Khaw et al., 1998; cited from earlier work
[13] = test system: mixed lymphocyte reaction; conditions: Nishida et al., 1995; cited from earlier work

| Molecule | MLR rIC50 [1] | Im (maximum percentage of inhibition observed) ([2]; 72 h) | IC50 ([2]; 72 h) | Im (maximum percentage of inhibition observed) [3] | IC50 [3] | C. glabrata DSM 11226 rMIC [4] | C. albicans DSM 1386 rMIC [5] | C. albicans DSM 5816 rMIC [6] | further results |
| --- | --- | --- | --- | --- | --- | --- | --- | --- | --- |
| COC1CC2CCC(C)C(O)(CC(=O)N3CCCCC3C(=O)OC(C(C)CC3CCC(O)C(OC)C3)CC(=O)C(C)C=C(C)C(O)CC(=O)C(C)CC(C)C=CC=CC=C1C)O2 (stereo not shown) [Compound 16, 9-deoxo-27-desmethoxy-rapamycin] | >14.7 | 25% | 15.8 nM | 32% | 2 nM | 5 | 5 | 1 | – |
| 27-desmethoxy-rapamycin [Compound 22] | – | – | – | – | – | – | – | – | antifungal activities [7]: lower than that of rapamycin |
| CO[C@H]1C[C@@H]2CC[C@@H](C)[C@](O)(CC(=O)N3CCCC[C@H]3C(=O)O[C@H]([C@H](C)C[C@@H]3CC[C@@H](O)[C@H](O)C3)CC(=O)[C@H](C)/C=C(\C)[C@@H](O)[C@@H](O)C(=O)[C@H](C)C[C@H](C)/C=C/C=C/C=C/1C)O2 [Compound 8, 9-deoxo-27-O-desmethyl-39-O-desmethyl-rapamycin] | 4.1 | 30% | 63 nM | 38% | 20 nM | 1 | 1 | 1 | – |
| CC1=CC(C)C(=O)CC(C(C)CC2CCC(O)C(O)C2)OC(=O)C2CCCCN2C(=O)CC2(O)OC(CCC2C)CC(O)C(C)=CC=CC=CC(C)CC(C)C(=O)CC1O (stereo not shown) [Compound 1, 9-deoxo-16-O-desmethyl-27-desmethoxy-39-O-desmethyl-rapamycin] | 9.4 | 38% | 50.1 nM | 38% | 3.2 nM | 5 | 5 | 1 | – |
| CO[C@@H]1C[C@H](C[C@@H](C)[C@@H]2CC(=O)[C@H](C)/C=C(\C)[C@@H](O)CC(=O)[C@H](C)C[C@H](C)/C=C/C=C/C=C(\C)[C@@H](O)C[C@@H]3CC[C@@H](C)[C@](O)(CC(=O)N4CCCC[C@H]4C(=O)O2)O3)CC[C@H]1O [Compound 6, 9-deoxo-16-O-desmethyl-27-desmethoxy-rapamycin] | 8.8 | 38% | 25 nM | 48% | 126 nM | 5 | 5 | 1 | – |
| CO[C@H]1C[C@@H]2CC[C@@H](C)[C@@](O)(O2)C(=O)C(=O)N2CCCC[C@H]2C(=O)O[C@H]([C@H](C)C[C@@H]2CC[C@@H](O)[C@H](OC)C2)CC(=O)[C@H](C)/C=C(\C)[C@@H](O)[C@@H](O)C(=O)[C@H](C)C[C@H](C)/C=C/C=C/C=C/1C [Compound 21, 27-O-desmethyl-rapamycin] | – | – | – | – | – | – | – | – | inhibition of LPS-stimulated proliferation of murine splenic B cells [8]: decreased when compared to rapamycin; inhibition of FKBP12 PPlase activity [9]: seemed to be increased; antifungal activity [10]: lower than that of rapamycin; antifungal activities [7]: lower than that of rapamycin; inhibition of ConA-stimulated proliferation of murine splenic T cells [11]: decreased when compared to rapamycin |
| 4-hydroxyprolyl-26-desmethoxy-rapamycin | – | – | – | – | – | – | – | – | inhibitory activity in proliferation assays [12]: significantly less than that of rapamycin |
| CO[C@@H]1C[C@H](C[C@@H](C)[C@@H]2CC(=O)[C@H](C)/C=C(\C)[C@@H](O)[C@@H](O)C(=O)[C@H](C)C[C@H](C)/C=C/C=C/C=C(\C)[C@@H](O)C[C@@H]3CC[C@@H](C)[C@](O)(CC(=O)N4CCCC[C@H]4C(=O)O2)O3)CC[C@H]1O [Compound 9, 9-deoxo-16-O-desmethyl-27-O-desmethyl-rapamycin] | 6.5 | 35% | 12.6 nM | 40% | 17.8 nM | 1 | 1 | 1 | – |
| COC1CC2CCC(C)C(O)(O2)C(=O)C(=O)N2CCCC2C(=O)OC(C(C)CC2CCC(O)C(OC)C2)CC(=O)C(C)/C=C(\C)C(O)C(OC)C(=O)C(C)CC(C)/C=C/C=C/C=C/1C (stereo not shown) [prolylrapamycin, reference compound] | – | – | – | – | – | – | – | – | antifungal activities [7]: lower than that of rapamycin |
| CO[C@H]1C[C@@H]2CC[C@@H](C)[C@](O)(CC(=O)N3CCCC[C@H]3C(=O)O[C@H]([C@H](C)C[C@@H]3CC[C@@H](O)[C@H](OC)C3)CC(=O)[C@H](C)/C=C(\C)[C@@H](O)[C@@H](OC)C(=O)[C@H](C)C[C@H](C)/C=C/C=C/C=C/1C)O2 [Compound 19, 9-deoxo-rapamycin] | – | – | – | – | – | – | – | – | mixed lymphocyte reaction (MLR) inhibitory activity [13]: more significant decrease in activity |
| CC1=CC(C)C(=O)CC(C(C)CC2CCC(O)C(O)C2)OC(=O)C2CCCCN2C(=O)C(=O)C2(O)OC(CCC2C)CC(O)C(C)=CC=CC=CC(C)CC(C)C(=O)CC1O (stereo not shown) [Compound 3, 16-O-desmethyl-27-desmethoxy-39-O-desmethyl-rapamycin] | 7.9 | 37% | 63.1 nM | 38% | 20 nM | 1 | 1 | 1 | – |
| CO[C@H]1C[C@@H]2CC[C@@H](C)[C@@](O)(O2)C(=O)C(=O)N2CCCC[C@H]2C(=O)O[C@H]([C@H](C)C[C@@H]2CC[C@@H](O)[C@H](OC)C2)CC(=O)[C@H](C)/C=C(\C)[C@@H](O)[C@@H](OC)C(=O)[C@H](C)C[C@H](C)/C=C/C=C/C=C/1C [rapamycin, reference compound] | – | 40% | – | 56% | – | – | – | – | IC50 ([2]; Homo sapiens, HT-29, 72 h): 200 nM; IC50 ([3]; Homo sapiens, MCF7): 0.03 nM |

From patent publication US9040259B2, “Production of polyketides and other natural products” (Buck Institute for Research on Aging, priority 2002, dated 2015)
